Test system: KB
Assay: Cytotoxicity against human KB cells
Type: functional, cell-based

Compound | IC50 [nM]
CCCC(=O)N[C@H](C(=O)N[C@@H]1C(=O)N[C@@H](CC(C)C)C(=O)N[C@H]2CC[C@@H](O)N(C2=O)[C@@H](CC(C)C)C(=O)N(C)[C@@H](Cc2ccccc2)C(=O)N[C@@H](C(C)C)C(=O)O[C@@H]1C)C(C)C [TASIPEPTIN A] | 930
CCCC(=O)N[C@@H]1C(=O)N[C@@H](CC(C)C)C(=O)N[C@H]2CC[C@@H](O)N(C2=O)[C@@H](CC(C)C)C(=O)N(C)[C@@H](Cc2ccccc2)C(=O)N[C@@H](C(C)C)C(=O)O[C@@H]1C [TASIPEPTIN B] | 820
